Source: patent US10188634B2, “3-(3H-imidazo[4,5-C]pyridin-2-yl)-1 H-pyrazolo[4,3-B]pyridines and therapeutic uses thereof” (Samumed, LLC, priority 2015, dated 2019)

Key:
[1] = test system: primary human mesenchymal stem cells (hMSCs); experiment: Induction of chondrogenesis in primary human mesenchymal stem cells (hMSCs), nodule imaging with Rhodamine B / Nile Red; assay type: cell-based; details: for Emax: hMSCs chondrogenesis, TGF-β3 (10 ng/mL) as positive control, read-out: Max. Activity as % TGF-β3 activity; for EC50: hMSCs, concentration required to induce 50% levels of chondrogenesis vs TGF-β3 positive control, read-out: Conc (nM) of 50% TGF-β3 activity
Summary of the method: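 Passage 3-6 hMSCs cultured 6 days at 37° C in incomplete chondrogenic induction medium with compound (2700-10 nM, 96-well; 5000-2.2 nM, 384-well; 0.03% DMSO), TGF-β3 10 ng/mL as positive control. Fixed nodules stained with Rhodamine B/Nile Red, imaged at 531/625 nm; nodule area normalized to DMSO wells for EC50, maximum activity and dose at maximum.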

[2] = test system: IL-6 in THP-1 cells; experiment: Inhibition of IL-6 in LPS-stimulated THP-1 human monocyte cells (HTRF); assay type: cell-based; details: IL-6 HTRF; for EC50: 500 ng/mL LPS, 22 hours; for inhibition at 10 µM: LPS, read-out: percent inhibition in brackets (given for EC50 >10 μM)
Summary of the method: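 THP-1 cells, serum-reduced (1% FBS) for 24 h, were exposed to compound (1:3, 10-point series from 10 μM; 0.1% DMSO) for 2 h, then 500 ng/mL LPS for 22 h at 37° C. Secreted IL-6 measured by HTRF (665/620 ratio), normalised to DMSO; EC50 by four-parameter fit, else % inhibition at 10 μM.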

Row | SMILES | Emax [1] [%] | EC50 [2] [nM] | inhibition at 10 µM [2] [%] | EC50 [1] [nM]
1 | Cc1ccncc1-c1ccc2[nH]nc(-c3nc4c(-c5cc(F)cc(CNS(C)(=O)=O)c5)cncc4[nH]3)c2n1 [Compound 453, N-(3-Fluoro-5-(2-(5-(4-methylpyridin-3-yl)-1H-pyrazolo[4,3-b]pyridin-3-yl)-3H-imidazo[4,5-c]pyridin-7-yl)benzyl)methanesulfonamide] | 35 | > 10000 | 23.9 | –
2 | CN(C)CCOc1cncc(-c2ccc3[nH]nc(-c4nc5c(-c6cccc(F)c6)cncc5[nH]4)c3n2)c1 [Compound 487, 2-((5-(3-(7-(3-Fluorophenyl)-3H-imidazo[4,5-c]pyridin-2-yl)-1H-pyrazolo[4,3-b]pyridin-5-yl)pyridin-3-yl)oxy)-N,N-dimethylethan-1-amine] | 55 | > 10000 | 33.4 | 2
3 | COc1cncc(-c2ccc3[nH]nc(-c4nc5c(-c6cccc(F)c6)cncc5[nH]4)c3n2)c1 [Compound 488, 3-(7-(3-Fluorophenyl)-3H-imidazo[4,5-c]pyridin-2-yl)-5-(5-methoxylpyridin-3-yl)-1H-pyrazolo[4,3-b]pyridine] | 56 | > 10000 | 43 | 21
4 | CC(C)CC(=O)Nc1cncc(-c2ccc3[nH]nc(-c4nc5c(-c6ccc(Cl)s6)cncc5[nH]4)c3n2)c1 [Compound 992, N-(5-(3-(7-(5-Chlorothiophen-2-yl)-3H-imidazo[4,5-c]pyridin-2-yl)-1H-pyrazolo[4,3-b]pyridin-5-yl)pyridin-3-yl)-3-methylbutanamide] | 61 | > 10000 | 29.8 | 10
5 | CC(C)(C)C(=O)Nc1cncc(-c2ccc3[nH]nc(-c4nc5c(-c6ccc(Cl)s6)cncc5[nH]4)c3n2)c1 [Compound 998, N-(5-(3-(7-(5-Chlorothiophen-2-yl)-3H-imidazo[4,5-c]pyridin-2-yl)-1H-pyrazolo[4,3-b]pyridin-5-yl)pyridin-3-yl)pivalamide] | 85 | > 10000 | 43 | 10
6 | Clc1ccc(-c2cncc3[nH]c(-c4n[nH]c5ccc(-c6cncc(CN7CCCC7)c6)nc45)nc23)s1 [Compound 1004, 3-(7-(5-Chlorothiophen-2-yl)-3H-imidazo[4,5-c]pyridin-2-yl)-5-(5-(pyrrolidin-1-ylmethyl)pyridin-3-yl)-1H-pyrazolo[4,3-b]pyridine] | 62 | > 10000 | 29.8 | 10
7 | O=C(Nc1cncc(-c2ccc3[nH]nc(-c4nc5c(-c6ccc(Cl)s6)cncc5[nH]4)c3n2)c1)C1CCC1 [Compound 1011, N-(5-(3-(7-(5-Chlorothiophen-2-yl)-3H-imidazo[4,5-c]pyridin-2-yl)-1H-pyrazolo[4,3-b]pyridin-5-yl)pyridin-3-yl)cyclobutanecarboxamide] | 68 | > 10000 | 32.4 | 30
